Values of other authors, collected in patent US20180338945A1, “SKIN ADHESIVES, ANTIMICROBIAL COMPOSITIONS, ARTICLES, AND METHODS FOR THE USE THEREOF” (DERMALINK TECHNOLOGIES, INC., priority 2015, published 2018).

Key:
E. coli = conditions: pure LAE
A. brasiliensis = conditions: pure LAE

In the case of CCCCCCCCCCCC(=O)N[C@@H](CCCNC(=N)N)C(=O)OCC [LAE, N^α-lauroyl-arginine ethyl ester], the “minimum inhibitory concentration (MIC)” value (E. coli) is given as 16 micrograms per mL and the “minimum inhibitory concentration (MIC)” value (A. brasiliensis) is given as 32 micrograms per mL.
